US7238779B2, “Acyl CoA:cholesterol acyltransferase (ACAT-2)” (The Regents of the University of California, priority 1998, dated 2007)

Test system: ACAT-2 protein
Assay: inhibition of ACAT-2 protein activity
Format: biochemical
Conditions: general statement, concentration not given

| Compound | activity of the ACAT-2 protein is inhibited by the compound |
| --- | --- |
| CC(C)c1cccc(C(C)C)c1NC(=O)NCC1(c2ccc(N(C)C)cc2)CCCC1.Cl [PD 132301-2] | inhibited |
| CCCCCCCCCCC(C)(C)C(=O)Nc1c(OC)cc(OC)cc1OC [CI-976] | inhibited |
| O=S(=O)(F)Cc1ccccc1 [PMSF] | inhibited |
| O=C(O)c1cc[c]([Hg][OH])cc1 [PHMB] | inhibited |
| CC(C)c1cc(C(C)C)c(CC(=O)NS(=O)(=O)Oc2c(C(C)C)cccc2C(C)C)c(C(C)C)c1 [CI-1011] | inhibited |
| CC(=O)[C@H]1CC[C@H]2[C@@H]3CCC4=CC(=O)CC[C@]4(C)[C@H]3CC[C@]12C [progesterone] | inhibited |
